From ChEMBL document CHEMBL5252619, “Sadopeptins A and B, Sulfoxide- and Piperidone-Containing Cyclic Heptapeptides with Proteasome Inhibitory Activity from a Streptomyces sp” (J Nat Prod, 2023)
Activity calls are given as the source filed them.

How the values were obtained:
[1] = test system: Proteasome; experiment: Inhibition of human proteasome trypsin-like activity using Boc-LRR-AMC as substrate measured for 30 mins in presence of MG132 by fluorescence based assay; format: subcellular; conditions: dose 10-50 µM
[2] = test system: Proteasome; experiment: Inhibition of human proteasome chymotrypsin-like activity using suc-LLVY-AMC as fluorogenic substrate measured for 30 mins in presence of MG132 by fluorescence based assay; format: subcellular; conditions: dose 10-50 µM
[3] = test system: A549; experiment: Cytotoxicity against human A549 cells assessed as reduction in cell viability up to 200 uM measured for 9 hrs by WST-8 assay; format: functional, cell-based
[4] = test system: Proteasome; experiment: Inhibition of proteasome caspase-like activity in human A549 cells at 25 uM using ZLLE-AMC as fluorogenic substrate preincubated for 15 mins followed by substrate addition and measured after 6 mins by fluorometer analysis; format: subcellular
[5] = test system: Proteasome; experiment: Inhibition of proteasome caspase-like activity in human A549 cells assessed as LC3 lipidation at 25 to 100 uM measured for 12 hrs in presence of MG132; conditions: dose 25-100 µM
[6] = test system: Proteasome; experiment: Inhibition of proteasome caspase-like activity in human A549 cells assessed as cleaved PARP level at 25 to 100 uM measured for 12 hrs in presence of MG132; conditions: dose 25-100 µM
[7] = test system: Proteasome; experiment: Inhibition of proteasome caspase-like activity in human A549 cells assessed as increase in caspase-3 level at 25 to 100 uM measured for 12 hrs in presence of MG132; format: subcellular; conditions: dose 25-100 µM

CCCC(=O)N[C@@H](CCCNC(N)=O)C(=O)N[C@@H]1C(=O)N[C@@H](CC[S+](C)[O-])C(=O)N[C@H]2CC[C@@H](O)N(C2=O)[C@@H](Cc2ccccc2)C(=O)N(C)[C@@H](Cc2ccc(O)cc2)C(=O)N[C@@H](C(C)C)C(=O)O[C@@H]1C (some centres undefined)
active: inhibition [1] Dose-Dependent Effect | inhibition [2] Dose-Dependent Effect | Activity [3] | inhibition [4] | inhibition [5] | inhibition [6] | inhibition [7]

CC(C)CC(=O)N[C@@H](CCCNC(N)=O)C(=O)N[C@@H]1C(=O)N[C@@H](CC[S+](C)[O-])C(=O)N[C@H]2CC[C@@H](O)N(C2=O)[C@@H](Cc2ccccc2)C(=O)N(C)[C@@H](Cc2ccc(O)cc2)C(=O)N[C@@H](C(C)C)C(=O)O[C@@H]1C (some centres undefined)
active: inhibition [1] Dose-Dependent Effect | inhibition [2] Dose-Dependent Effect | Activity [3] | inhibition [4] | inhibition [5] | inhibition [6] | inhibition [7]
